Laboratory results published in ChEMBL document CHEMBL1649077, “Synthesis and biological evaluation of aryl-phospho-indole as novel HIV-1 non-nucleoside reverse transcriptase inhibitors” (J Med Chem, 2011).

Legend:
[1] = Antiviral activity against wild type HIV1 BH10 with reverse transcriptase Y181C single mutant infected human MT4 cells assessed as inhibition of virus-induced cytopathogenicity; type: functional, cell-based, Human immunodeficiency virus type 1 BH10; conditions: Human immunodeficiency virus 1, MT4
[2] = Antiviral activity against wild type HIV1 BH10 infected human MT4 cells assessed as inhibition of virus-induced cytopathogenicity; type: functional, cell-based, Human immunodeficiency virus type 1 BH10; conditions: Human immunodeficiency virus 1, MT4
[3] = Antiviral activity against wild type HIV1 BH10 with reverse transcriptase K103N single mutant infected human MT4 cells assessed as inhibition of virus-induced cytopathogenicity; type: functional, cell-based, Human immunodeficiency virus type 1 BH10; conditions: Human immunodeficiency virus 1, MT4
[4] = Antiviral activity against wild type HIV1 BH10 with reverse transcriptase K103N/Y181C double mutant infected human MT4 cells assessed as inhibition of virus-induced cytopathogenicity; type: functional, cell-based, Human immunodeficiency virus type 1 BH10; conditions: Human immunodeficiency virus 1, MT4
[5] = Oral bioavailability in rat at 5 mg/kg; type: ADME, organism-based; conditions: in vivo
[6] = Metabolic stability of the compound in monkey hepatocytes assessed as compound remaining after 4 hrs; type: ADME, cell-based, Macaca mulatta, Hepatocyte; conditions: rhesus monkey, read-out: Stability
[7] = Metabolic stability of the compound in dog hepatocytes assessed as compound remaining after 4 hrs; type: ADME, cell-based, Canis lupus familiaris, Hepatocyte; conditions: read-out: Stability
[8] = Metabolic stability of the compound in rat hepatocytes assessed as compound remaining after 4 hrs; type: ADME, cell-based, Hepatocyte; conditions: read-out: Stability
[9] = Metabolic stability of the compound in human hepatocytes assessed as compound remaining after 4 hrs; type: ADME, cell-based, Hepatocyte; conditions: read-out: Stability
[10] = Half life in rat at 5 mg/kg, po; type: ADME, organism-based; design: dose 5 mg/kg, route oral; conditions: in vivo
[11] = Clearance in rat at 5 mg/kg, po; type: ADME, organism-based; design: dose 5 mg/kg, route oral; conditions: in vivo

Molecule `CCOP(=O)(c1ccccc1)c1c(C(N)=O)[nH]c2ccc(Cl)cc12` (stereo unspecified) has an EC50 [1] of 0.0137 µM, an EC50 [2] of 0.0012 µM and an EC50 [3] of 0.0164 µM. For the same molecule, the EC50 [4] was > 1.25 µM.

For `NC(=O)c1[nH]c2ccc(Cl)cc2c1P(=O)(OCc1ccccc1)c1ccccc1` (stereo unspecified), the EC50 [1] was > 1.25 µM, the EC50 [2] was 0.0337 µM and the EC50 [3] was > 1.25 µM. The EC50 [4] was > 1.25 µM.

In the case of `CN(C)P(=O)(c1ccccc1)c1c(C(N)=O)[nH]c2ccc(Cl)cc12` (stereo unspecified), the EC50 [1] is reported as 0.467 µM, the EC50 [2] is reported as 0.0139 µM and the EC50 [3] is reported as > 1.25 µM. For the same molecule, the EC50 [4] was > 1.25 µM.

For `NC(=O)c1[nH]c2ccc(Cl)cc2c1P(=O)(c1ccccc1)c1ccccc1`, the EC50 [2] was > 1.25 µM.

`CP(=O)(c1ccccc1)c1c(C(N)=O)[nH]c2ccc(Cl)cc12` (stereo unspecified) gave an EC50 [1] of 0.266 µM, an EC50 [2] of 0.0008 µM and an EC50 [3] of 1.38 µM. The EC50 [4] was > 1.25 µM.

In the case of `NC(=O)c1[nH]c2ccc(Cl)cc2c1P(=O)(O)c1ccccc1`, the EC50 [2] is reported as > 1.25 µM.

Molecule `COP(=S)(c1ccccc1)c1c(C(N)=O)[nH]c2ccc(Cl)cc12` (stereo unspecified) has an EC50 [1] of 0.0414 µM, an EC50 [2] of 0.0004 µM and an EC50 [3] of 0.0899 µM. The EC50 [4] was > 1.25 µM.

`CO[P@](=O)(c1ccccc1)c1c(C(N)=O)[nH]c2ccc(Cl)cc12` gave an EC50 [1] of 0.0036 µM, an EC50 [2] of 0.0001 µM and an EC50 [3] of 0.0012 µM. It also gave an EC50 [4] of 0.137 µM.

For `CO[P@@](=O)(c1ccccc1)c1c(C(N)=O)[nH]c2ccc(Cl)cc12`, the EC50 [1] was > 1.25 µM, the EC50 [2] was 0.182 µM and the EC50 [3] was > 1.25 µM. The EC50 [4] was > 1.25 µM.

In the case of `COP(=O)(c1ccccc1)c1c(C(N)=O)[nH]c2ccc(Cl)cc12` (racemic), the bioavailability [5] is reported as 107%, the EC50 [1] is reported as 0.0101 µM and the remaining at 4 h [6] is reported as 49%. For the same molecule, the EC50 [2] was 0.0007 µM, the remaining at 4 h [7] was 100% and the EC50 [3] was 0.0068 µM. The remaining at 4 h [8] was 100%, the remaining at 4 h [9] was 99% and the half-life [10] was 1.19 h. For the same molecule, the EC50 [4] was 0.447 µM and the CL/F [11] was 2.85 mL/min/kg.
